# Measured values from US12377112B2, “Methods of treating neurocognitive disorders, chronic pain and reducing inflammation” (priority 2019, dated 2025).
# Marks after values point to notes of the source that are not given here.
# Tested on: male C57BL/6 mice
# Experiment: Chronic constriction injury (CCI) model of neuropathic pain, von Frey paw withdrawal threshold
# Format: in vivo, mouse
# Experimental: To determine whether psilocybin may alleviate chronic neuropathic pain, various doses of psilocybin were tested in a mouse model of chronic constriction injury (CCI).
# Male C57BL/6 mice (age 6-7 weeks, source: Charles River UK) were housed in standard caging in groups of 2-4, with free access to food (5CR4, Purina) and water (except during placement in the test box) on a 12/12 light/dark cycle.
# All animals underwent behavioral testing of mechanical allodynia on three consecutive days (Day −2, Day−1 and Day 0) prior to surgery in order to determine the baseline withdrawal thresholds. Briefly, Static mechanical (tactile) allodynia was assessed by measurement of withdrawal threshold using calibrated (force; g) von-Frey monofilaments (Touch-Test Sensory Evaluator; Scientific Marketing Associates) applied to the plantar surface of the hind-paw. The animals were placed in individual Perspex boxes on a raised metal mesh for 30-40 minutes before the test. A series of graduated von Frey hairs (0.07, 0.16, 0.4, 0.6 and 1 g) was applied in sequence with a protocol of 1 second on 1 second off, repeated 10 times. Each hair was applied perpendicularly to the center of the ventral surface of the paw until it slightly bends. The force applied to the hind-paw of the animal to induce 5 responses out of 10 trials was recorded as paw withdrawal threshold (PWT). Three baseline paw withdrawal thresholds were taken on ipsilateral paws. The mean of the last two readings used as the baseline withdrawal threshold.
# Subsequently, surgery was performed under anesthesia (Isoflurane mixed with oxygen, 3:1, 2 L/min) to tie three loose ligatures of prolene (7-0, Ethicon) around the sciatic nerve, with 1 mm spacing between each. The nerve was then returned below the muscle layer and the wound closed using absorbable sutures (Vicryl).
# Following recovery from surgery, Von Frey assessment of mechanical allodynia was taken on days 19 and 22. Animals were then ranked and randomized (based on a Latin square design) to treatment groups according to the percentage change (compared to pre-surgery baseline) of the mean mechanical withdrawal threshold observed on days 19 and 22. Only those animals showing a PWT percentage change of >50% from pre-surgery baseline were included in the study.
# On day 23, the animals were dosed with psilocybin (1, 3 or 10 mg/kg by intraperitoneal injection) or vehicle (10 mL/kg by intraperitoneal injection). Nerve pain medication Pregabalin (15 mg/kg administered orally) was also used as a positive control. Allodynia was then assessed at 0.5, 4 and 24 hours post-treatment timepoint (PTT).
compound,measurement,setting,value
"CC(C)C[C@H](CN)CC(=O)O [pregabalin, reference compound]","Force-induced paw withdrawal, mean","15 mg/kg PO group, D19-22 Neuropathic baseline (before dosing)",0.13 g
same,"Force-induced paw withdrawal, mean","15 mg/kg PO group, D-2 D-1 Baseline (before surgery and dosing)",0.67 g
same,"Force-induced paw withdrawal, mean","15 mg/kg PO, D23 0.5 hours PTT",0.19 g
same,"Force-induced paw withdrawal, mean","15 mg/kg PO, D23 4 hours PTT",0.46* g
same,"Force-induced paw withdrawal, mean","15 mg/kg PO, D24 24 hours PTT",0.16 g
same,Paw withdrawal threshold vs neuropathic baseline,"15 mg/kg orally, 4 hours",significant increase
